From publication PMC12062478, “Screening herbal and natural product libraries to aid discovery of novel allosteric modulators of human P2X7” (Purinergic Signalling, 2024)
Several values for one entry are separate records, joined by “and”; a condition that tells them apart may be missing. Equal values may be shown once. Read-outs that look alike come from different tables or passages of the source. Numbered stars: 1 amine (or outer) side, 2 acyl side, 3 side chain; on linkers, the order of the positions; unused ones are H or OH. Bridge positions count the residues as written; N and C are the ends. Square brackets hold non-standard residues; d marks the D form. Peptide text beside a SMILES is read from it. I, II: the chains in the order shown. Actinocin(9to1) = Cc1c2oc3c(C)ccc(C(=O)[*:1])c3nc-2c(C(=O)[*:2])c(N)c1=O; dHica = CC(C)C[C@@H](O)C(=O)O; NMeV = CN[C@H](C(=O)O)C(C)C; NMeA = CN[C@@H](C)C(=O)O; βAla = NCCC(=O)O; Sar = CNCC(=O)O

Target: T1, P2X7 (Homo sapiens, UniProt Q99572)
T1 construct: expressed in transfected cells
T1 sequence (Q99572 1-595): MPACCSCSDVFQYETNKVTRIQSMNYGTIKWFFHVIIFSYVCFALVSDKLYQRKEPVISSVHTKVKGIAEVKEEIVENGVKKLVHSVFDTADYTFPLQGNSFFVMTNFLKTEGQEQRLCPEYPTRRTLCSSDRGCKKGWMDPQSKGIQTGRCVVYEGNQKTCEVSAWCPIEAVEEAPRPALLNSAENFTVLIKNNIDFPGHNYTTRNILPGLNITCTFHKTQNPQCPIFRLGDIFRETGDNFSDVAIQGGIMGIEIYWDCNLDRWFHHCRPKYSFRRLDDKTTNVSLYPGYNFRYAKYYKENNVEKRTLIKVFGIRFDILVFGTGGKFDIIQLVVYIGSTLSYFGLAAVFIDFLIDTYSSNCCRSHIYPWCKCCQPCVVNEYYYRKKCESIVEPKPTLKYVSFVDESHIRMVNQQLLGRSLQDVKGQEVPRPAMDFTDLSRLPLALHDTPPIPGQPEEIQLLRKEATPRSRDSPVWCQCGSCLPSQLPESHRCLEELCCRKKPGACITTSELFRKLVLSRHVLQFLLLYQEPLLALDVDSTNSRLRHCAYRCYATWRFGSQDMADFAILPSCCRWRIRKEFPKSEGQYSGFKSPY
Test: ATP-induced YO-PRO-1 dye uptake in HEK-hP2X7 cells
Assay type: cell-based
Settings: for P2X7 response (% of control): compound 10 µM injected 60 s before ATP; for Effect on ATP-mediated YO-PRO-1 uptake: 10 µM, 10 min pre-incubation; for Effect on YO-PRO-1 uptake at high concentrations: > 30 µM, HEK-hP2X7; for Mechanism of action from ATP concentration–response curve: compound 10 µM
Procedure: HEK-hP2X7 or HEK-hP2X4 cells were plated at 2.5 × 10^4 cells per well (100 µL volume) the day before experiments into poly-D-lysine (Merck Millipore) coated 96-well plates (NUNC, Fisher Scientific #167-008). The membrane impermeant dye YO-PRO-1 iodide (Life Technologies, Fisher Scientific) was used at a final concentration of 2 µM in low divalent buffer (145 mM NaCl, 5 mM KCl, 0.2 mM CaCl2, 13 mM glucose, 10 mM HEPES, pH 7.3, osm 300–310). Media were removed from the plate, and 90 µL of YO-PRO-1 buffer was added per well. Plates were warmed to 37 °C for 5 min before recording. Data was acquired on a Flexstation 3 plate reader (Molecular Devices) using excitation wavelength 490 nm, emission wavelength 520 nm, and six reads per well (PMT medium). […] […] Pipette height was set to 80 µL and the rate of injection was 4.
YO-PRO-1 dye uptake assay data is plotted as a percentage of control where control responses are measured in the absence of plant extract. Cell viability data is plotted as a percentage of control or background-corrected fluorescence data. Concentration–response graphs were plotted using GraphPad Prism v6 with a non-linear regression fit (variable slope). IC50 values were generated from collated datasets from a minimum of three independent experiments. Statistical differences were determined by one-way ANOVA statistical tests performed using GraphPad Prism v6 with Dunnett’s multiple comparison post hoc test. Significance was taken as P ≤ 0.05.
We acquired a natural product library (Set IV) containing 419 compounds from NCI DTP and tested these on P2X7 responses using a YO-PRO-1 dye uptake in HEK293 cells stably expressing human P2X7 (HEK-hP2X7). […] This allowed us to assess for any immediate effect of the injected compound, and secondly, it allowed for any potential negative modulators to be pre-incubated with P2X7.

[1] = HEK-hP2X7, 10 min pre-treatment, ATP 1 mM, read-out: IC50 value (95% CI)
[2] = screen for potential negative allosteric modulators
[3] = HEK-hP2X7, NCI Natural Product Set IV compounds, Fig. 1F, read-out: IC50 (dose inhibition experiments)

Nc1nc(=O)c2c([nH]1)NCC(CNc1ccc(C(=O)N[C@@H](CCC(=O)O)C(=O)O)cc1)N2C=O (mixture of isomers) [Folinic acid, reference compound]
P2X7 response (% of control) (screen for PAM activity): 160.00 % of control

Nc1ncnc2c1ncn2[C@@H]1O[C@H](COP(=O)(O)OP(=O)(O)OP(=O)(O)O)[C@@H](O)[C@H]1O [ATP, reference compound]
EC50 (ATP with vehicle (DMSO), no modulator): 131 µM and 110 µM

O=C1CSC(=O)N1C(CCc1ccncc1)COc1ccc(-c2cccc([N+](=O)[O-])c2)cc1 (stereo not shown) [AZ11645373, reference compound]
IC50 [1]: 0.153 µM

COc1cc(Cc2nccc3cc(OC)c(OC)cc23)c(C(C)=O)cc1OC [Acetopapaverine]
P2X7 response (% of control) [2]: 34.92 % of control

COc1cc2c(c3c1c(=O)c1ccccc1n3C)C=CC(C)(C)O2 [Acronine]
Effect on ATP-mediated YO-PRO-1 uptake (ATP 1 mM): able to reduce ATP-mediated YO-PRO-1 uptake
P2X7 response (% of control) [2]: 1.05 % of control

Cc1c2oc3c(C)ccc(C(=O)N[C@@H]4C(=O)N[C@H](C(C)C)C(=O)N5CCC[C@H]5C(=O)N(C)CC(=O)N(C)[C@@H](C(C)C)C(=O)O[C@@H]4C)c3nc-2c(C(=O)N[C@@H]2C(=O)N[C@H](C(C)C)C(=O)N3CCC[C@H]3C(=O)N(C)CC(=O)N(C)[C@@H](C(C)C)C(=O)O[C@@H]2C)c(N)c1=O [Actinomycin] (I: T[dV]P[Sar][NMeV] / II: T[dV]P[Sar][NMeV]; ester I:1-I:C, II:1-II:C; linker I:N-II:N via Actinocin(9to1))
P2X7 response (% of control) (screen for PAM activity): 188.44 % of control

COc1cc([C@@H]2c3cc4c(cc3C[C@H]3COC(=O)[C@@H]32)OCO4)cc(OC)c1OC [Anthricin]
P2X7 response (% of control) [2]: 30.94 % of control

NC(=O)C#CC(N)=O [Aquamycin]
P2X7 response (% of control) [2]: 15.18 % of control

CC(=O)O[C@H]1C(=O)[C@@]2(C)[C@H]([C@H](OC(=O)c3ccccc3)[C@]3(O)C[C@H](O)C(C)=C1C3(C)C)[C@]1(OC(C)=O)CO[C@@H]1C[C@@H]2O [Baccatin III]
P2X7 response (% of control) (screen for PAM activity): 136.25 % of control

COc1c2ccoc2cc2oc(=O)ccc12 [Bergapten]
Effect on YO-PRO-1 uptake at high concentrations: reduction of YO-PRO-1 uptake in hP2X7 cells at high concentrations

C[C@@H]1C[C@H](C)C[C@H](C)[C@@H](O)CC(=O)O[C@H]([C@@H]2CCC[C@H]2C(=O)O)C/C=C/C=C(/C#N)[C@H](O)[C@@H](C)C1 [Borrelidin]
P2X7 response (% of control) [2]: 42.93 % of control

C[C@H]1Oc2cc3c(-c4c(O)cc(O)c5c(O)c6c(cc45)O[C@H](C)[C@@H](C)C6=O)c(O)cc(O)c3c(O)c2C(=O)[C@@H]1C [Chaetochromin A]
P2X7 response (% of control) [2]: 12.08 % of control

CC[C@H](C)C(=O)O[C@H]1CCC=C2C=C[C@H](C)[C@H](CC[C@@H](O)C[C@@H](O)CC(=O)O)[C@H]21 [Compactin]
P2X7 response (% of control) (screen for PAM activity): 139.71 % of control

CC1(C)CCC[C@]2(C)C3=C(CC[C@@H]12)C(=O)OC3 [Confertifolin]
Effect on ATP-mediated YO-PRO-1 uptake (ATP 1 mM): able to reduce ATP-mediated YO-PRO-1 uptake
IC50 [3]: 3.86 µM
Mechanism of action from ATP concentration–response curve: potential non-competitive mechanism of action
P2X7 response (% of control) [2]: 9.72 % of control

C/C=C/C(=O)O [Crotonic acid]
P2X7 response (% of control) (screen for PAM activity): 142.15 % of control

COc1cc(/C=C/C(=O)CC(=O)/C=C/c2ccc(O)c(OC)c2)ccc1O [Curcumin]
P2X7 response (% of control) (screen for PAM activity): 144.58 % of control

CC[C@H](C)[C@@H]1NC(=O)[C@@H]2CCCN2C(=O)[C@@H](CC(C)C)OC(=O)CCNC(=O)[C@H](C)N(C)C(=O)[C@H](C(C)C)N(C)C1=O [Destrusin B] (cyclo([dHica]PI[NMeV][NMeA][βAla]))
P2X7 response (% of control) [2]: 46.65 % of control

O=C(O)c1cc(O)c(O)c(OC(=O)c2cc(O)c(O)c(O)c2)c1 [Digallic acid]
Effect on ATP-mediated YO-PRO-1 uptake (ATP 1 mM): able to reduce ATP-mediated YO-PRO-1 uptake
IC50 [3]: 4.05 µM
Mechanism of action from ATP concentration–response curve: potential non-competitive mechanism of action
P2X7 response (% of control) [2]: 0 % of control

O=C(O[C@@H]1Cc2c(O)cc(O)cc2O[C@@H]1c1ccc(O)c(O)c1)c1cc(O)c(O)c(O)c1 [ECG, epicatechin gallate]
IC50 (IC50 value (95% CI)): 4.96 µM

O=c1c(-c2ccc(O)cc2)coc2cc(O)cc(O)c12 [Genistein]
Effect on YO-PRO-1 uptake at high concentrations: reduction of YO-PRO-1 uptake in hP2X7 cells at high concentrations
IC50 (IC50 value (95% CI)): 49.7 µM

COc1ccc2c(c1OC)CN1CCc3cc4c(cc3[C@@H]1C2)OCO4 [Hydroberberine]
P2X7 response (% of control) [2]: 9.75 % of control

CC(=O)OC(C)C1C2=C(C(=O)C[C@]1(C)O)C(=O)c1c(ccc(-c3ccc4c(c3O)C(=O)C3=C(C4=O)C(C(C)OC(C)=O)[C@@](C)(O)CC3=O)c1O)C2=O (stereo partly shown) [Julimycin II]
P2X7 response (% of control) (screen for PAM activity): 180.28 % of control

O=c1c(O)c(-c2ccc(O)cc2)oc2cc(O)cc(O)c12 [Kampferol, kaempferol]
IC50 [1]: 40 µM

CCCCC[C@@H](O)[C@H]1C(=O)O[C@H](C)[C@@H](O)/C=C/C=C/C=C/C=C/C=C(\C)[C@@H](O)[C@H](O)[C@H](O)C[C@H](O)C[C@H](O)C[C@H](O)C[C@H](O)C[C@@H]1O [Lagosin]
P2X7 response (% of control) (screen for PAM activity): 148.84 % of control

CC(=O)CCC(=O)O [Levullinic acid]
P2X7 response (% of control) (screen for PAM activity): 134.82 % of control

Nc1ncnc2c1ncn2C1OCC(O)C1O (stereo not shown) [MLS003170979]
P2X7 response (% of control) (screen for PAM activity): 129.73 % of control

CCCn1cc2c3c(cccc31)[C@H]1C[C@@H](C)CN(C)[C@@H]1C2.O=C(O)C(O)C(O)C(=O)O [NSC332294]
P2X7 response (% of control) [2]: 29.09 % of control

COc1c(OC)c2c3c(nccc3c1OC)C(=O)c1cc(O)ccc1-2 [NSC785143]
P2X7 response (% of control) (screen for PAM activity): 149.00 % of control

c1cc2c(c3c1C[C@@H]1NCCc4cc5c(c-3c41)OCO5)OCO2 [NSC785157]
P2X7 response (% of control) (screen for PAM activity): 152.97 % of control

COc1cc2c(cc1O)C[C@H]1c3c(cc(OC)c(O)c3-2)CCN1C [NSC785158]
P2X7 response (% of control) [2]: 49.59 % of control

COc1cc2c3c(c1O)-c1cc(O)ccc1C[C@H]3N(C)CC2 [NSC785167]
P2X7 response (% of control) (screen for PAM activity): 125.18 % of control

COc1cc2c3c(c1O)Oc1ccc(cc1)C[C@@H]1c4c(cc(OC)c(OC)c4Oc4ccc(cc4)C[C@@H]3N(C)CC2)CCN1C [NSC785173]
P2X7 response (% of control) (screen for PAM activity): 148.84 % of control

COc1cc2c3c(c1O)-c1cc(N(Cc4ccccc4)Cc4ccccc4)ccc1CC3N(C)CC2 (stereo not shown) [NSC785176]
P2X7 response (% of control) (screen for PAM activity): 159.37 % of control

COc1cc2c3c(c1O)-c1cc(O)ccc1CC3N(C)CC2 (stereo not shown) [NSC785186]
P2X7 response (% of control) (screen for PAM activity): 146.91 % of control

COc1ccc2c(c1OC)-c1c(OC)c(OC)cc3c1[C@H](C2)NCC3 [NSC785187]
P2X7 response (% of control) (screen for PAM activity): 127.21 % of control

COC1C(C)OC(OC2CC(C)(O)Cc3cc4c(c(O)c32)C(=O)c2c(O)cc3c(c2C4=O)OC2OC3(C)C(O)C(N(C)C)C2O)C(OC)C1(C)OC (stereo not shown) [Nogamycin]
P2X7 response (% of control) (screen for PAM activity): 155.77 % of control

CC(=O)O[C@H]1C[C@]2(O)[C@@H]3CC[C@@H]4C[C@@H](O)CC[C@]4(C)[C@H]3CC[C@]2(C)[C@H]1C1=CC(=O)OC1 [Oleandrogenin]
P2X7 response (% of control) [2]: 42.33 % of control

CCCCCCCCCCCCCCCC(=O)O [Palmitic acid]
Effect on YO-PRO-1 uptake at high concentrations: reduction of YO-PRO-1 uptake in hP2X7 cells at high concentrations

CC(=O)CCCCn1c(=O)c2c(ncn2C)n(C)c1=O [Pentoxifylline, reference compound]
P2X7 response (% of control) (screen for PAM activity): 140.48 % of control

CC(C)=CCC[C@@H](C)C1=C(O)C(=O)C(C)=CC1=O [Perezone]
P2X7 response (% of control) (screen for PAM activity): 148.44 % of control

COc1cc([C@@H]2c3cc4c(cc3[C@H](O)[C@H]3COC(=O)[C@@H]23)OCO4)cc(OC)c1OC [Picropodophyllin]
P2X7 response (% of control) (screen for PAM activity): 145.86 % of control
